Experimental findings from patent publication US20110130346A1, “PEPTIDE CONJUGATES FOR DELVERY OF BIOLOGICALLY ACTIVE COMPOUNDS” (ISIS INNOVATION LIMITED, priority 2008, published 2011) are described below.

Assay [1] relates to glucose transporters. The assay is described as follows: Example 3: glucose transporter inhibitors and hexose analogues in glucose-enhanced 2′OMePS AO uptake into TA muscle. The assay is classed as in vivo. To be noted: 8 week old mdx mice; for effect of sugar or analogue used in place of D-glucose in 2′OMePS AO formulation on dystrophin-positive fibres: same concentration as D-glucose, intramuscular, two weeks; for effect of inhibitor on the enhancing effect of 5% D-glucose formulation of 2′OMePS AO: intramuscular into TA. The source says: To investigate whether carrier-mediated glucose uptake might be implicated in the mechanism of enhanced AO uptake into muscle, we examined the effects of a range of glucose concentrations using glucose-formulated 2′OMePS AOs. This was studied again via intramuscular administration into 8 week old mdx mice. […] The activity of glucose transporters is known to be stereospecific in that only D-glucose isomers can be actively transported. To further test the idea carrier-mediated glucose uptake might be implicated in the mechanism and to rule out possible osmotic effects of the glucose formulation we investigated the activities of D- and L-glucose isomers in AO formulations. The same concentration of L-glucose was formulated with 2′OMePS AOs and delivered to 8 week old mdx mice by local intramuscular injection.
To investigate whether specific glucose transporters might be implicated directly in the mechanism of enhanced AO uptake we tested whether or not various inhibitors of glucose transporter function could abolish the enhanced uptake of 2′OMePS AOs into TA muscles in 8 week old mdx mice. Two inhibitor compounds, phloretin and phloridzin, are well-characterised inhibitors of glucose transport. […] That enhanced AO uptake and activity was dependent on a phloretin-sensitive pathway, is a hallmark of involvement of the GLUT family of facilitative glucose transporters. Given that glucose transporter-mediated glucose uptake appeared mechanistically important, we further investigated this by studying whether any products of intracellular glucose metabolism might be implicated downstream in the uptake mechanism. To do this we investigated a glucose analogue, 3-O-methyl glucose (3-OMG) that is effectively transported by glucose transporters but not subject to phosphorylation by glucokinase by using the same concentration of 3-OMG formulated with 2′OMePS AO. Two weeks following intramuscular injection TA muscles cryosections were assayed by immunohistochemistry.
For intramuscular studies the TA muscle of each experimental mdx mouse was injected with a 40 μl dose of PNA and PNA-peptide conjugates with saline at a final concentration of 125 μg/ml, and the contralateral muscle was injected with saline. For systemic intravenous injections, X μg PNA or PNA-peptide conjugates in 80 μl saline buffer were injected into tail vein of mdx mice at the final dose of 25 mg/kg and 6 mg/kg, respectively. The animals were killed at various time points after injection by CO2 inhalation and tissues were removed and snap-frozen in liquid nitrogen-cooled isopentane and stored at −80° C.
Sections of 8 μm were cut from at least two-thirds of the muscle length of TA, quadriceps, gastrocnemius, biceps, abdominal wall and diaphragm muscles and cardiac muscle at 100 μm intervals. The sections were then examined for dystrophin expression with a polyclonal antibody 2166 against the dystrophin carboxyl-terminal region. The maximum number of dystrophin-positive fibres in one section was counted using the Zeiss AxioVision fluorescence microscope. The intervening muscle sections were collected either for RT-PCR analysis and Western blot or as serial sections for immunohistochemistry. Polyclonal antibodies were detected by goat-anti-rabbit IgGs Alexa Fluro 594 (Molecular Probe, UK). Routine haematoxylin and eosin staining was used to examine overall muscle morphology and assess the level of infiltrating mononuclear cells. The serial sections were also stained with a panel of polyclonal and monoclonal antibodies for the detection of DAPC protein components. Rabbit polyclonal antibody to neuronal nitric oxide synthase (nNOS) and mouse monoclonal antibodies to β dystroglycan, α-sarcoglycan and β-sarcoglycan were used according to manufacturer's instructions (Novocastra, UK). Polyclonal antibodies were detected by goat-anti-rabbit IgGs Alexa 594 and the monoclonal antibodies by goat-anti-mouse IgGs Alexa 594 (Molecular Probe, UK). […]

The test system of assay [2] is exon and intron 23 of the dystrophin gene. The assay is described as follows: Example 1: intramuscular injection into TA muscle of mdx mice, count of dystrophin-positive fibres by immunohistochemistry. The assay is classed as in vivo. To be noted: for dose dependence of dystrophin induction: 5 μg, 10 μg and 20 μg intramuscular; for number of dystrophin-positive fibres per TA muscle: 20 μg intramuscular. How it is done:
Three age groups of mdx mice were used: 20-21 days (referred to as 3 weeks; five mice for each test and control groups), 2-month old (five mice for test groups and control groups), and 5-6 months (referred to 6 months, six mice for each testing and control group). Mice were killed by cervical dislocation at desired time points, and muscles were snap-frozen in liquid nitrogen-cooled isopentane and stored at −80° C.
One tibialis anterior (TA) muscle of each experimental mdx mouse was injected with a 40 μl dose (3-week-old group injected with 10 μl) of PNA-peptide conjugates with saline at a final concentration of 125 μg/ml, and the contralateral muscle was injected with saline. The animals were sacrificed at various time points after injection, the muscles were removed and snap-frozen in liquid nitrogen-cooled isopentane and stored at −80° C. To examine the dose-response profile, 2-month old mdx mice received the injections of 10 μg and 20 μg of PNA-peptide conjugates.
Sections of 8 μm were cut from at least two-thirds of muscle length of TA muscles at 100 μm intervals. The sections were then examined for dystrophin expression with a polyclonal antibody 2166 against the dystrophin carboxyl-terminal dystrophin. The maximum number of dystrophin-positive fibres in one section was counted using the Zeiss AxioVision fluorescence microscope. The intervening muscle sections were collected either for Western blot or as serial sections for immunohistochemistry. Polyclonal antibodies were detected by goat-anti-rabbit IgGs Alexa Fluro 594 (Molecular probe). Routine H&E staining was used to examine overall muscle morphology and assess the level of infiltrating mononuclear cells.

For assay [3], the system named is exon 23 of the dystrophin transcript. The assay can be described thus: RT-PCR of exon 23 skipping after lipofectin transfection of H2K mdx cells. To be noted: 250 nm. The assay is classed as cell-based, mouse. How it is done: The H2K mdx myoblasts were cultured at 33° C. under a 10% CO2/90% air atmosphere in high-glucose DMEM supplemented with 20% fetal calf serum, 0.5% chicken embryo extract (PAA laboratories Ltd, Yeovil, UK), and 20 units/ml γ-interferon (Roche applied science, Penzberg, Germany). Cells were then treated with trypsin and plated at 2×10^4 cells per well in 24-well plates coated with 200 ug/ml gelatine (Sigma). H2K mdx cells were transfected 24 h after trypsin treatment in a final volume of 0.5 ml of antibiotic- and serum-free Opti-MEM (Life Technologies). Each well was treated with 250 nM of PNA-peptide complexed with corresponding amounts of lipofectin (weight ratio 1:2=oligolipofectin) (Life Technologies) according to the supplier's instructions. After 4 h of incubation, the transfection medium was replaced with DMEM supplemented medium.
Cells were transfected as triplicate wells with Lipofectin-Oligonucleotide complexes and total cellular RNA was then extracted 24 h after transfection with RNAeasy mini kit (Qiagen) and 200 ng of RNA template was used for 20 μl RT-PCR with OneStep RT-PCR kit (Qiagen, West Sussex, UK). The primer sequences for the initial RT-PCR were Exon20Fo 5′-[…]-3′ (SEQ ID NO: 125) and Ex26Ro 5′-[…]-3′ (SEQ ID NO: 126) for amplification of mRNA from exons 20 to 26. The cycling conditions were 95° C. for 30 sec, 55° C. for lmin, and 72° C. for 2 min for 30 cycles. […]

The mark [4] stands for this setting: 2-month old mdx mice, 5 μg intramuscular.
Where [5] appears, read: 2-month old mdx mice, single 5 μg intramuscular injection into TA, two weeks.

“Also recorded” adds a separate entry of the source.

For `OCC1OC(O)CC(O)C1O` (stereo not drawn) [2-DG], the “effect of sugar or analogue used in place of D-glucose in 2′OMePS AO formulation on dystrophin-positive fibres” value (“effect of sugar or analogue used” below) in assay [1] is reported as “abolished”.
With `O=C[C@H](O)[C@@H](O)[C@@H](O)[C@H](O)CO` [D-galactose], the “effect of sugar or analogue used” value in assay [1] is “replicated”.
In the case of `CO[C@H]1O[C@H](CO)[C@H](O)[C@H](O)[C@H]1O` [AMG], the “effect of sugar or analogue used” value in assay [1] is on record as “abolished”.
For ASSLNIA-S-S-Lggccaaacctcggcttacct [MSP], in assay [2] (setting [4]), the “dystrophin-positive fibres observed (in words)” value was “large number of dystrophin-positive fibres” and the “focal areas with strong dystrophin-positive muscle fibres” value is “observed”. Also, the “dose dependence of dystrophin induction” value in assay [2] (2-month old mdx mice) was “not significant”. Besides, in assay [2] (6-month old mdx mice, single 5 μg intramuscular), the “number of dystrophin-positive fibres” value was found to be 237±58.
As for `CO[C@@H]([C@H](O)[C@H](O)CO)[C@@H](O)C=O` [3-OMG, 3-O-methyl glucose], in assay [1], the “effect of sugar or analogue used” value was “decrease in the number of dystrophin-positive fibres”.
As for `O=C(CCc1ccc(O)cc1)c1c(O)cc(O)cc1O[C@@H]1O[C@H](CO)[C@@H](O)[C@H](O)[C@H]1O` [phloridzin], the “effect of inhibitor on the enhancing effect of 5% D-glucose formulation of 2′OMePS AO” value in assay [1] was “partially but significantly abolished”.
With “IVADNLQQQNTAPQIGTVNSQ-S-S-Lggccaaacctcggcttacct [AAV8]”, the “dystrophin-positive fibres observed (in words)” value in assay [2] (setting [4]) is reported as “large number of dystrophin-positive fibres”. In addition, in assay [2] (2-month old mdx mice), the “dose dependence of dystrophin induction” value is “significant difference between 10 μg and 5 μg injection; also recorded: no further increase”; the “number of dystrophin-positive fibres per TA muscle” value is reported as 282±63. Further, the “number of dystrophin-positive fibres” value in assay [2] (2-month old mdx mice, 10 μg intramuscular (printed 'bug')) was determined as 308±20. Further, in assay [2] (setting [5]), the “number of dystrophin-positive fibres” value was 171±40. In addition, in assay [3], the “removal of exon 23 from the dystrophin transcript (RT-PCR)” value is recorded as “efficient removal of exon 23”.
Turning to `O=C[C@@H](O)[C@H](O)[C@@H](O)[C@@H](O)CO` [L-glucose], in assay [1], the “effect of sugar or analogue used” value was “significant decrease in number of dystrophin-positive myofibres”.
Turning to `O=C(CCc1ccc(O)cc1)c1c(O)cc(O)cc1O` [phloretin], the “effect of inhibitor on the enhancing effect of 5% D-glucose formulation of 2′OMePS AO” value in assay [1] is recorded as “completely abolished”.
Turning to `O=C[C@@H](O)[C@@H](O)[C@H](O)[C@H](O)CO` [D-mannose], the “effect of sugar or analogue used” value in assay [1] is listed as “replicated”.
For “TVAVNLQSSSTDPATGDVHVM-S-S-Lggccaaacctcggcttacct [AAV6]”, the “dystrophin-positive fibres in 3-week and 6-month old mice in comparison with 2-month old mice” value in assay [2] (5 μg intramuscular) is recorded as “slightly fewer dystrophin-positive fibres”. In addition, in assay [2] (setting [4]), the “dystrophin-positive fibres observed (in words)” value is listed as “large number of dystrophin-positive fibres” and the “focal areas with strong dystrophin-positive muscle fibres” value was “observed”. For the same compound, in assay [2] (2-month old mdx mice), the “dose dependence of dystrophin induction” value is “significant difference between 20 μg and 5, 10 μg injection”; the “number of dystrophin-positive fibres per TA muscle” value is recorded as 424 (±86). Besides, the “number of dystrophin-positive fibres” value in assay [2] (setting [5]) stood at 251.
